In US10869834B2, “Treatment of inflammatory bowel disease” (University College Dublin, National University of Ireland, …, priority 2016, dated 2020):

Experiments:
C. rodentium [1] = conditions: H2O2 generated by Cos-NOX4 cells vs Cos-p22 negative control; 4 h, DMEM; separated by a filter; n=4
Experimental: (§1) Cos-NOX4 and Cos-p22 cells in DMEM, 5% FBS (Cell Signal 18:69-82, 2006; J Biol Chem 283:35273-82, 2008; Mol Cell Biol 30:961-75, 2010) were seeded into the lower chamber of a Boyden chamber (pore width 0.4 μm) 48 h before the assay. Lactobacilli grown in DMEM were suspended in media onto the upper chamber. Co-culture was initiated for 3-4 h in DMEM, 5% FBS media followed by harvesting of bacteria on the filter for RNA isolation.

EPEC = conditions: H2O2 released from Cos-NOX4 cells (not Cos-p22) for 3 h; separated by a filter
Experimental: as §1

C. rodentium [2] = conditions: single bolus of 1 mM H2O2 in DMEM, analysed 3 h later
Experimental: (§2) Invasion and adhesion assays were performed as previously reported (Cell Host Microbe 12:47-59, 2012). Bacterial cell viability was assessed using the XTT (2,3-Bis-(2-Methoxy-4-Nitro-5-Sulfophenyl)-2H-Tetrazolium-5-Carboxanilide) assay. For in vitro experiments bacteria were exposed at time zero once to 0.7 mM H2O2, except for C. jejuni (5 mM), and analyzed after indicated time periods (up to 3 h, except C. jejuni up to 6 h).

L. monocytogenes [3] = tested on: L. monocytogenes
Experimental: as §2

S. pneumoniae [4] = conditions: 0.7 mM H2O2 for 3 h
Experimental: as §2

C. rodentium [5] = assay: C. rodentium infection of mice treated with L. johnsonii by oral gavage; type: in vivo, C57Bl/6 mice; conditions: daily oral gavage with NCC533 or NCC9359 prior and during infection; 6 dpi
Experimental: Cyba^flox/flox mice were bred to B6.SJL-Tg (Vil-cre) 997Gum/J mice (Jackson Laboratories) to generate mice with a targeted deletion of p22^phox in the epithelium of the small intestine and colon (p22ΔIEC). Mice were infected by oral gavage with 0.3 ml of an overnight culture of Luria Bertani broth containing 5×10^9 Citrobacter rodentium and analyzed at day 6 post infection. L. johnsonii NCC533/NCC9359 pretreatment and treatment: L. johnsonii NCC533 and NCC9359 strains were administered at a concentration of 10^9 CFU to WT mice via oral gavage starting 3 days prior C. rodentium inoculation and daily during C. rodentium infection. For histopathology Carnoy-fixed distal colons were embedded in paraffin and 5 μm sections were stained with hematoxylin and eosin (H&E).

murine colitis (3% DSS) = assay: In-vivo murine colitis model (3% DSS), administration of H2O2-producing bacteria; parameters: species or system mice
Experimental: Wildtype mice were treated with 1×10^9 bacteria by daily oral gavage 5 days before, during colitis (3% DSS in water) and until the end of the experiment (day 16). On day 7 of DSS treatment, DSS was replaced with water to enable the healing process. […] One-way Anova with Tukey post-hoc test; **p=0.01, ***p=0.001.

[6] = tested on: bacterial phosphotyrosine signalling; conditions: H2O2 generated by colon cells, human biopsies and rabbit loop model during pathogen exposure; co-culture 3 h
Experimental: Bacteria in RPMI 1640 containing 3% FBS (OD600=0.4; 10^7 bacteria, 1 ml) were incubated with HCT-8 cells at 37° C. in microaerophilic conditions with MOI 50. DPI pretreatment of HCT-8 cells was for 20 min (25 μM). Non-adherent bacteria were removed by centrifugation of media (3300 g, 5 min), and were used for immunoblotting. […] Exposure of bacteria to H2O2 released by Cos cells stable expressing the NOX4-p22^phox complex or as negative control Cos cells expressing only p22^phox was performed using Boyden chambers. Cells in DMEM, 10% FBS medium were seeded into the bottom chamber 24 h before start of the experiment and then moved to microaerophilic conditions for 3 h. Bacteria grown in microaerophilic conditions were resuspended in 5% O2 conditioned DMEM, 3-10% FBS medium, placed on top of the filter (3 μm pore size) and incubated for 3 h. Bacteria were harvested from the filter for analysis.
Polarized In Vitro Organ Culture (pIVOC): pIVOC experiments of colon biopsies were performed as described (Cell Host Microbe 12:47-59, 2012). Bacterial infections were conducted using microaerophilic preconditioned media or buffers. L. monocytogenes was added at a final OD600=0.2 to the apical side of biopsies and H2O2 release was measured. Controls were either non-infected biopsies or biopsies pretreated with 20 μM DPI for 20 min before addition of C. jejuni or L. monocytogenes to the top chamber. […]

L. monocytogenes [7] = conditions: Cos-NOX4 cell-produced H2O2 vs Cos-p22
Experimental: Exposure of bacteria to H2O2 released by Cos cells stable expressing the NOX4-p22^phox complex or as negative control Cos cells expressing only p22^phox was performed using Boyden chambers. Cells in DMEM, 10% FBS medium were seeded into the bottom chamber 24 h before start of the experiment and then moved to microaerophilic conditions for 3 h. Bacteria grown in microaerophilic conditions were resuspended in 5% O2 conditioned DMEM, 3-10% FBS medium, placed on top of the filter (3 μm pore size) and incubated for 3 h. Bacteria were harvested from the filter for analysis.

[8] = tested on: bacterial phosphotyrosine content; conditions: 0.7 mM H2O2, 3 h; when iron is present; 5% O2
Experimental: C. jejuni 81-176, L. monocytogenes EGDe and K. pneumoniae were grown microaerophilic to mid-log phase in minimal essential media. Bacteria were collected by centrifugation (5000 rpm, 10 min) and diluted to OD600=0.2 in MEM. Iron (II) sulfate (40 μM) was added as indicated and cultures were grown microaerophilic until OD600=0.5 was reached. To C. jejuni 81-176 cultures 5 mM H2O2 was added and the growth continued microaerophilic for 8 h. L. monocytogenes and K. pneumoniae cultures were exposed to 0.7 mM H2O2 for 3 h in microaerophilic conditions. Bacteria were then diluted to OD600=0.2, collected by centrifugation, washed twice with 25 mM Tris-HCl, resuspended in 30 μl Laemmli buffer and heated for 5 min at 95° C. Boiled samples were loaded on 10% SDS-PAGE gels, separated by electrophoresis and immunoblotted. The control samples followed an identical protocol without supplemental iron or added H2O2.

S. pneumoniae [9] = conditions: bacteria pretreated with 0.7 mM H2O2 for 3 h
Experimental: Biofilm was analyzed using SYTO9. Cultured bacteria were grown in microaerophilic conditions overnight. The bacterial culture was then adjusted to OD600=0.1 and 1 ml of this solution was added to an optical grade plastic bottom μ-plate 24 well. Bacteria were incubated for an additional 72 h in microaerophilic conditions. Bacteria were washed gently with autoclaved water to remove planktonic cells and fixed with 3% paraformaldehyde in PBS for 1 h. Images were then analyzed for total intensity of SYTO9 fluorescence over the imaged volumes using Fiji. Briefly, after staining with SYTO9, 50 independent 13.2 μm stacks of 60 images at a 0.22 μm Z resolution were imaged for all conditions. The mean fluorescence of the different slices in the stacks was measured and a standard deviation was computed from the aggregated data per slice.

mucus secretion = conditions: Birchenough G. et al., Science 352:1535-1542; cited from earlier work
[10] = bacteria pretreated with 0.7 mM H2O2 for 3 h
[11] = daily oral gavage 5 days before, during colitis and until day 16

With `OO` [H2O2, hydrogen peroxide] the “ler and escN expression in C. rodentium (qPCR)” value (C. rodentium [1]) was “Downregulation of LEE island genes”, the “ler and escN expression in EPEC (qPCR)” value (EPEC) was “Downregulation of LEE island genes” and the “ler expression in C. rodentium (qPCR)” value (C. rodentium [2]) was “Downregulation of ler”. The “bacterial viability after treatment” value (L. monocytogenes [3]; 0.7 mM H2O2 for 3 h) was “remained fully viable”, the “adherence to HCT-8 colon cells” value (L. monocytogenes [3]; [10]) was “reduced” and the “invasion of HCT-8 colon cells” value (L. monocytogenes [3]; [10]) was “reduced”. For the same compound, the “bacterial viability after treatment” value (S. pneumoniae [4]) was “remained fully viable”, the “host epithelial tissue damage (H&E staining of colon sections)” value (C. rodentium [5]) was “required to prevent host epithelial tissue damage” and the “recovery after insult (disease index, body weight)” value (murine colitis (3% DSS); daily administration, low nanomolar H2O2 (via NCC533, 1x10^9 bacteria oral gavage), DSS replaced with water on day 7) was “accelerates recovery after insult”. For the same compound, the “inflammation (colon length as indicator)” value (murine colitis (3% DSS); [11]) was “downregulates inflammation”, the “tissue restitution (H&E staining of colon day 11)” value (murine colitis (3% DSS); [11]) was “supports rapid tissue restitution” and the “bacterial phosphotyrosine signalling (anti-phosphotyrosine immunoblots)” value [6] was “downregulates bacterial phosphotyrosine signalling”. For the same compound, the “bacterial phosphotyrosine content (anti-phosphotyrosine immunoblot)” value (L. monocytogenes [7]) was “marked decrease in bacterial phosphotyrosine content”, the “bacterial phosphotyrosine content (anti-phosphotyrosine immunoblots)” value [8] was “decreases bacterial phosphotyrosine content” and the “biofilm formation (mean SYTO9 fluorescence)” value (S. pneumoniae [9]) was “Reduced biofilm formation”. For the same compound, the mucus secretion (mucus secretion) was “can restore mucus secretion”.
